Source: patent EP4793274A1, “SALT AND CRYSTAL FORM OF KIF18A INHIBITOR COMPOUND, PREPARATION METHOD THEREFOR AND USE THEREOF” (Hubei Bio-Pharmaceutical Industrial Technological Institute …, priority 2023, dated 2025)

Tests used:
[1] = Dynamic solubility at 37 °C in H2O, SGF, FaSSIF and FeSSIF (HPLC concentration, pH of filtrate, XRPD of residual solid); type: physicochemical; conditions: listed as Crystal form B of p-toluenesulfonate; for S: solubility: feeding concentration 10 mg/mL; for FC: crystal form change: XRPD of residual solid; for pH: pH of filtrate
Method: 0.82 mL of glacial acetic acid and 1.18 g of NaCl were added to a 100 mL volumetric flask and completely dissolved by addition of purified water.
The solubility of each sample in H2O, SGF, FaSSIF, and FeSSIF was determined at different time points (1 h, 2 h, 4 h, and 24 h). […] 137-156. […] Table C-2. Summary of dynamic solubility test results at 37 °C

[2] = Solid state stability (XRPD and HPLC purity); type: physicochemical
Excerpt: 167-171. […] Table C-3. Summary of solid state stability evaluation

[3] = Hygroscopicity by dynamic vapor sorption (DVS); type: physicochemical; conditions: 25 °C/80% RH
Method: Dynamic vapor sorption (DVS) curves were acquired on a DVS IntrInsic from Surface Measurement Systems (SMS). The relative humidity at 25 °C was corrected with the deliquescence points of LiCl, Mg(NO3)2, and KCl. Table A-5. DVS test parameters
The percentage changes in mass of the samples when the humidity changed (0% RH to 95% RH) at a constant temperature of 25 °C were collected. 157-166.

[4] = Solubility at room temperature in water, SGF and FaSSIF (HPLC concentration, pH of filtrate, XRPD of residual solid); conditions: listed as Crystal form B of p-toluenesulfonate; for S: solubility: feeding concentration 1 mg/mL; for pH: pH of filtrate
Method: 100 mg of NaCl and 50 mg of Triton X-100 were weighed into a 50 mL volumetric flask and then completely dissolved by addition of purified water. 816 µL of 1 M hydrochloric acid was added, and the pH was adjusted to 1.8 with 1 M hydrochloric acid or 1 M NaOH solution. The mixed solution was brought to the volume by addition of purified water.
340 mg of anhydrous NaH2PO4 and 620 mg of NaCl were weighed into a 100 mL volumetric flask, and then completely dissolved by addition of purified water. 55.44 µL of a 50% NaOH solution was then added, and the pH was adjusted to 6.5 with 1 M hydrochloric acid or 1 M NaOH solution. The mixed solution was brought to the volume by addition of purified water. Subsequently, 110 mg of SIF powder was weighed into a 50 mL volumetric flask and completely dissolved in the solution described above, and the mixed solution was brought to the volume.
Solids at a feeding concentration of 1 mg/mL (calculated based on free crystal form) were rotationally mixed with corresponding vehicles at room temperature. […] After sampling at each time point, the samples were centrifuged (at 10000 rpm) and filtered (through a 0.22 µm PTFE filter head), the HPLC concentrations and pH values of the filtrates were determined, and the centrifuged solid samples were subjected to XRPD analysis.

[5] = 80 °C/sealed, 1 day, listed as Crystal form B of p-toluenesulfonate

## Cc1cc(-c2cnn(-c3ccc(NS(=O)(=O)CCO)cc3N3CCC4(CC3)CC4)c2)nc(N2CCC(F)(F)CC2)n1 [crystal form B of the p-toluenesulfonate]
[1]; FaSSIF, 1 h, 60 min
  S: solubility: 61.4 µg/mL
[1]; FaSSIF, 2 h, 120 min
  S: solubility: 51.7 µg/mL
[1]; FaSSIF, 4 h, 240 min
  S: solubility: 22.2 µg/mL
[1]; FaSSIF, 24 h, 1440 min
  S: solubility: 16.3 µg/mL
[1]; FeSSIF, 1 h, 60 min
  S: solubility: 182.8 µg/mL
[1]; FeSSIF, 2 h, 120 min
  S: solubility: 166.5 µg/mL
[1]; FeSSIF, 4 h, 240 min
  S: solubility: 159.9 µg/mL
[1]; FeSSIF, 24 h, 1440 min
  S: solubility: 81.4 µg/mL
[1]; H2O, 1 h, 60 min
  S: solubility: 2.7 µg/mL
[1]; H2O, 2 h, 120 min
  S: solubility: 2.5 µg/mL
[1]; H2O, 4 h, 240 min
  S: solubility: 1.9 µg/mL
[1]; H2O, 24 h, 1440 min
  S: solubility: 1.5 µg/mL
[1]; SGF, 1 h, 60 min
  S: solubility: 56.8 µg/mL
[1]; SGF, 2 h, 120 min
  S: solubility: 45.6 µg/mL
[1]; SGF, 4 h, 240 min
  S: solubility: 23.3 µg/mL
[1]; SGF, 24 h, 1440 min
  S: solubility: 18.1 µg/mL
[1]; FaSSIF, 1 h
  FC: crystal form change: Yes
  pH: 2.92
[1]; FaSSIF, 2 h
  FC: crystal form change: Yes
  pH: 2.84
[1]; FaSSIF, 4 h
  FC: crystal form change: Yes
  pH: 2.74
[1]; FaSSIF, 24 h
  FC: crystal form change: Yes
  pH: 2.68
[1]; FeSSIF, 1 h
  FC: crystal form change: Yes
  pH: 4.68
[1]; FeSSIF, 2 h
  FC: crystal form change: Yes
  pH: 4.66
[1]; FeSSIF, 4 h
  FC: crystal form change: Yes
  pH: 4.68
[1]; FeSSIF, 24 h
  FC: crystal form change: Yes
  pH: 4.74
[1]; H2O, 1 h
  FC: crystal form change: Yes
  pH: 2.17
[1]; H2O, 2 h
  FC: crystal form change: Yes
  pH: 2.17
[1]; H2O, 4 h
  FC: crystal form change: Yes
  pH: 2.09
[1]; H2O, 24 h
  FC: crystal form change: Yes
  pH: 1.95
[1]; SGF, 1 h
  FC: crystal form change: Yes
  pH: 1.64
[1]; SGF, 2 h
  FC: crystal form change: Yes
  pH: 1.63
[1]; SGF, 4 h
  FC: crystal form change: Yes
  pH: 1.60
[1]; SGF, 24 h
  FC: crystal form change: Yes
  pH: 1.59
[2]; 25 °C/60% RH/open, 1 week
  HPLC results Relative to starting (%): 100.0%
[2]; 25 °C/60% RH/open, 1 week, listed as Crystal form B of p-toluenesulfonate
  HPLC results Purity (area%): 98.27 area%
[2]; 40 °C/75% RH/open, 1 week
  HPLC results Relative to starting (%): 100.0%
[2]; 40 °C/75% RH/open, 1 week, listed as Crystal form B of p-toluenesulfonate
  HPLC results Purity (area%): 98.25 area%
[2]; [5]
  HPLC results Purity (area%): 98.28 area%
  HPLC results Relative to starting (%): 100.0%
[2]; Starting, listed as Crystal form B of p-toluenesulfonate
  HPLC results Purity (area%): 98.28 area%
[2]; XRPD after 25 °C/60% RH/open, 1 week, listed as Crystal form B of p-toluenesulfonate
  Crystal form: Crystal form B of p-toluenesulfonate
[2]; XRPD after 40 °C/75% RH/open, 1 week, listed as Crystal form B of p-toluenesulfonate
  Crystal form: Crystal form B of p-toluenesulfonate
[2]; XRPD after 80 °C/sealed, 1 day, listed as Crystal form B of p-toluenesulfonate
  Crystal form: Crystal form B of p-toluenesulfonate
[3]
  vapor sorption values: 0.171%
[4]; FaSSIF, 2 h, 120 min
  S: solubility: 85.8 µg/mL
[4]; FaSSIF, 24 h, 1440 min
  S: solubility: 37.8 µg/mL
[4]; H2O, 24 h, 1440 min
  S: solubility: 0.1 µg/mL
[4]; SGF, 2 h, 120 min
  S: solubility: 41.3 µg/mL
[4]; SGF, 24 h, 1440 min
  S: solubility: 19.7 µg/mL
[4]; FaSSIF, 2 h
  pH: 6.5
[4]; FaSSIF, 24 h
  pH: 6.4
[4]; H2O, 2 h
  pH: 3.4
[4]; H2O, 24 h
  pH: 2.8
[4]; SGF, 2 h
  pH: 1.9
[4]; SGF, 24 h
  pH: 1.8
